The record followed here is ChEMBL document CHEMBL1201862, “PubChem BioAssay data set” (2004).

Test in all cases: inhibition of tumour cell growth, NCI panel, 48 h
In experiment [1] the test system is UACC-62.
Experiment [2] deals with OVCAR-5.
The test system of experiment [3] is CAKI-1.
Experiment [4] deals with OVCAR-4.
Experiment [5] concerns SNB-75.
The test system of experiment [6] is A549.
Experiment [7] has as its system COLO 205.
Experiment [8] has as its system Malme-3M.
Experiment [9] concerns HOP-62.
The test system of experiment [10] is LOX IMVI.
Experiment [11] has as its system U-251.
The subject of experiment [12] is KM-20L2.
Experiment [13] concerns SNB-19.
Experiment [14] relates to OVCAR-3.
Experiment [15] relates to NCI-H522.
Experiment [16] concerns T47D.
In experiment [17] the test system is PC-3.
Experiment [18] has as its system MCF7.
For experiment [19], the system named is MDA-MB-231.
The subject of experiment [20] is DU-145.

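Method: 48-hour compound exposure of cells in 96-well plates, five concentrations, linear interpolation of endpoints. The concentration for 50% growth inhibition is given as GI50.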 Activity calls are given as the source filed them. Cut-off read from the data, not from the text of the source: active = GI50 up to about 1.1 µM and inactive = higher. Where a SMILES comes first, the peptide text is derived from it. [ ]: non-standard residue; d: D form. Phe(4-NO2) = N[CH](Cc1ccc([N+](=O)[O-])cc1)C(=O)O Bounds are passed on as bounds.

For `CCN(C1=CC(=O)NC2CCCCN12)c1ccccc1` (stereo not drawn), the GI50 in experiment [1], in [2], in experiment [3], in experiment [4], in experiment [5] and in experiment [6] was > 100 µM (inactive) each time. Moreover, the GI50 in [7], in [8], in experiment [9], in experiment [10], in experiment [11] and in experiment [12] was > 100 µM (inactive) in each case. For the same compound, the GI50 in experiment [13] and in experiment [14] was > 100 µM (inactive) each time.
With `COc1ccc(NC(=O)/C(Cc2cc(=O)oc3cc(O)ccc23)=N\NC(C)(C)C)c(OC)c1`, the GI50 in [1], in experiment [2], in experiment [3], in experiment [15], in [4] and in experiment [6] was > 100 µM (inactive) in each case. Moreover, the GI50 in experiment [7], in experiment [8], in experiment [9], in experiment [10], in [11] and in experiment [12] was > 100 µM (inactive) throughout. Also, the GI50 in [13] and in experiment [14] was > 100 µM (inactive) throughout.
With `CCOc1ccccc1NC(=O)C1=C(C)NC(C)=C(C(=O)Nc2ccccc2OCC)C1c1ccc([N+](=O)[O-])cc1`, the GI50 in experiment [1] was 26.1 µM (inactive); in experiment [2], > 100 µM (inactive); in experiment [3], > 100 µM (inactive); in experiment [15], > 100 µM (inactive); in experiment [4], 68.9 µM (inactive); in experiment [5], 53.1 µM (inactive). For the same compound, the GI50 is > 100 µM (inactive) in [6]; 67.9 µM (inactive) in [7]; > 100 µM (inactive) in experiment [8]; > 100 µM (inactive) in [9]; > 100 µM (inactive) in experiment [11]; > 100 µM (inactive) in experiment [12]. Also, the GI50 in experiment [13] and in [14] was > 100 µM (inactive) each time.
Take `COc1c(OC(C)=O)ccc(/C=C2\N=C(C)OC2=O)c1[N+](=O)[O-]`: the GI50 in experiment [1] was > 100 µM (inactive); in experiment [2], > 100 µM (inactive); in [3] it was > 100 µM (inactive); in experiment [15], > 100 µM (inactive); in experiment [4], > 100 µM (inactive); in experiment [5] it was 91.6 µM (inactive). Further, the GI50 in experiment [6], in experiment [7], in experiment [8], in [9], in experiment [10] and in experiment [11] was > 100 µM (inactive) throughout. The GI50 in [12] and in experiment [13] was > 100 µM (inactive) in each case.
On to `C(=N\CC/N=C/c1cccc2ccccc12)/c1cccc2ccccc12`, for which the GI50 in [1] was > 100 µM (inactive); in [2], > 100 µM (inactive); in experiment [3], > 100 µM (inactive); in [15] it was > 100 µM (inactive); in experiment [4], > 100 µM (inactive); in experiment [5] it was 12.6 µM (inactive). Besides, the GI50 in [6], in experiment [7], in experiment [8], in [11], in [12] and in experiment [13] was > 100 µM (inactive) throughout.
For the compound `Cc1ccc(C(=O)c2nnc(C(=O)c3ccc(C)cc3)nn2)cc1`, the GI50 in experiment [1] is 36.1 µM (inactive); in experiment [2], 81.1 µM (inactive); in [3], 74.3 µM (inactive); in experiment [15], 35.5 µM (inactive); in experiment [4] it was 41.1 µM (inactive); in [5], > 100 µM (inactive). Further, the GI50 in [6] was 73.5 µM (inactive); in [7], 70.1 µM (inactive); in experiment [8] it was 65.5 µM (inactive); in [9], 39.4 µM (inactive); in experiment [10], 17.6 µM (inactive); in experiment [11], 40.7 µM (inactive). Besides, the GI50 was 65.9 µM (inactive) in experiment [12], 41.5 µM (inactive) in experiment [13] and 43.4 µM (inactive) in experiment [14].
Take `c1ccc(C2OCCO2)c(OCCOc2cc(OCCOc3ccccc3C3OCCO3)c(OCCOc3ccccc3C3OCCO3)cc2OCCOc2ccccc2C2OCCO2)c1`: the GI50 was 9.86 µM (inactive) in experiment [1]; > 100 µM (inactive) in [2]; > 100 µM (inactive) in experiment [3]; 2.42 µM (inactive) in experiment [15]; 8.34 µM (inactive) in [4]; 2.16 µM (inactive) in experiment [5]. Also, the GI50 was 24.4 µM (inactive) in experiment [6]; > 100 µM (inactive) in experiment [7]; 43.1 µM (inactive) in [8]; 13.3 µM (inactive) in experiment [9]; 49.4 µM (inactive) in experiment [10]; 10.3 µM (inactive) in experiment [11]. Moreover, the GI50 in [12] is > 100 µM (inactive); in experiment [14] it was 17.8 µM (inactive).
Take `CCN(CC)CCCCC1CCN(CC(=O)N2c3cc(Cl)ccc3NC(=O)CC2C)CC1` (stereo not drawn): the GI50 in experiment [1], in experiment [2], in [3], in experiment [4], in experiment [6] and in [7] was > 100 µM (inactive) each time. The GI50 in [8] is > 100 µM (inactive); in experiment [9] it was > 100 µM (inactive); in experiment [10] it was > 100 µM (inactive); in experiment [11], > 100 µM (inactive); in [12] it was 40.9 µM (inactive); in experiment [13], > 100 µM (inactive). Moreover, in experiment [14], the GI50 was > 100 µM (inactive).
In the case of `CCCCNC(=O)C1C(=O)N(CCCC)C(=O)/C1=N\N` (stereo not drawn), the GI50 in experiment [1], in experiment [2], in [3], in [15], in experiment [4] and in [5] was > 100 µM (inactive) throughout. Besides, the GI50 in experiment [7], in [8], in experiment [9], in [10], in experiment [11] and in experiment [12] was > 100 µM (inactive) each time. Also, the GI50 in experiment [13] and in experiment [14] was > 100 µM (inactive) throughout.
`O=C(O)/C(=C/c1c(O)ccc2ccccc12)c1csc(-c2nc(/C(=C\c3c(O)ccc4ccccc34)C(=O)O)cs2)n1`: the GI50 in [1] is 10.4 µM (inactive); in [2], 17.5 µM (inactive); in [5] it was 11 µM (inactive); in [6], 23.3 µM (inactive); in experiment [7], 16.4 µM (inactive); in experiment [8], 1.61 µM (inactive). Also, the GI50 in experiment [9] was 10 µM (inactive); in experiment [10], 19.8 µM (inactive); in [11] it was 14 µM (inactive); in [12], 19.4 µM (inactive); in experiment [13] it was 13.5 µM (inactive); in experiment [14] it was 13.3 µM (inactive).
As for `Cc1ccccc1NC(=O)C1C(=O)N(c2ccccc2C)C(=O)/C1=N\NC(N)=O` (stereo not drawn), the GI50 in [1] was > 100 µM (inactive); in experiment [2] it was > 100 µM (inactive); in experiment [3], > 100 µM (inactive); in experiment [15], > 100 µM (inactive); in experiment [4], > 100 µM (inactive); in experiment [5] it was 37.5 µM (inactive). Besides, the GI50 in experiment [6], in experiment [7], in experiment [8], in experiment [9], in experiment [11] and in experiment [12] was > 100 µM (inactive) each time. The GI50 in experiment [13] and in experiment [14] was > 100 µM (inactive) throughout.
Regarding `CC(NC(=O)C(Cc1ccc([N+](=O)[O-])cc1)NC(=O)C(N)CCCCN)C(=O)NC(Cc1ccc([N+](=O)[O-])cc1)C(N)=O` (stereo not drawn) (H-K[Phe(4-NO2)]A[Phe(4-NO2)]-NH2; configuration not given here), the GI50 in [1] was > 100 µM (inactive); in experiment [2], > 100 µM (inactive); in experiment [16] it was > 49.1 µM (inactive); in experiment [3] it was 47 µM (inactive); in [15], > 30.5 µM (inactive); in experiment [4], > 38.6 µM (inactive). The GI50 in experiment [5] is > 37.5 µM (inactive); in [6], 23 µM (inactive); in [7] it was > 52.7 µM (inactive); in experiment [8] it was 50.8 µM (inactive); in experiment [9], 11.7 µM (inactive); in [10], > 100 µM (inactive). For the same compound, the GI50 in experiment [11] was > 42.2 µM (inactive); in experiment [17], 32.5 µM (inactive); in [13], > 85.3 µM (inactive); in experiment [18], > 40.7 µM (inactive); in [14] it was 17.4 µM (inactive); in experiment [19], 39.6 µM (inactive). In addition, the GI50 in [20] is 53.5 µM (inactive).
As for `CO[C@H]1C[C@H](O[C@H]2CC[C@]3(C=O)[C@H]4CC[C@]5(C)[C@@H](C6=CC(=O)OC6)CC[C@]5(O)[C@@H]4CC[C@]3(O)C2)O[C@H](C)[C@H]1O` [CYMARIN], the GI50 in [1] was 0.43 µM (active); in experiment [2], 0.478 µM (active); in experiment [16], 0.384 µM (active); in experiment [3], 0.102 µM (active); in experiment [15] it was < 0.0393 µM (active); in experiment [4] it was 0.107 µM (active). Besides, the GI50 in [5] was 0.4 µM (active); in [6], 0.0805 µM (active); in [7], 0.618 µM (active); in [8], 0.225 µM (active); in [9], 0.114 µM (active); in [10], 0.184 µM (active). The GI50 is 0.314 µM (active) in experiment [11]; 0.203 µM (active) in [17]; 0.713 µM (active) in [13]; 0.463 µM (active) in experiment [18]; 0.146 µM (active) in [14]; 1.14 µM (inactive) in experiment [19]. For the same compound, the GI50 in experiment [20] is 0.115 µM (active).
